Reference: patent publication US7537760B2, “Monoclonal antibodies recognizing BAG3 protein sequences and their use in diagnostic and therapy of cell death-involving diseases” (priority 2001, dated 2009)

Tests used:
[1] = test system: cells of the human osteosarcoma line SAOS; experiment: Apoptosis in SAOS cells, cell permeabilization and PI staining; format: cell-based; details: 72 h; for % of apoptosis, incubation Etoposide (5 microM) / % of apoptosis, incubation Topotecan (40 ng/ml): without or with oligo 5 microM
Protocol: Cells of the SAOS line were incubated for 72 h in 10% FCS-RPMI without or with chemotherapeutic compounds (etoposide or topotecan) and/or the BAG3 antisense or control nonsense phosphorothioate oligodeoxynucleotides (5 microM) described in the text. Then cell apoptosis was analysed by cell permeabilization and PI staining according to ref.11.

BAG3 = BAG3 mRNA (PCR) and protein (immunofluorescence) levels in primary B-CLL cells; format: cell-based, human
Protocol: FIG. 1—Expression of BAG3 mRNA and protein in primary cells from leukemia patients. Leukemic cells were isolated from B-CLL patients' peripheral blood specimens by centrifugation through Ficoll-Hypaque (13) and cultured for 24 hours in RPMI 1640 medium supplemented with 10% fetal calf serum (10% FCS-RPMI), without or with fludarabine phosphate. A panel: cell mRNA was the extracted and BAG3 expression was verified by PCR (GAPDH expression is shown for comparative purpose); B panel: cells were permeabilised and analysed by indirect immunofluorescence with the polyclonal antibody AC-BAG3-1. A=control rabbit Ig; b=cells incubated with control medium and analysed with anti-BAG3; c=cells incubated with fludarabine and analysed with anti-BAG3.
FIG. 2—Downmodulation of BAG3 protein levels by anti-BAG3 antisense oligodeoxynucleotides. Leukemic cells were isolated from B-CLL patients' peripheral blood specimens by centrifugation through Ficoll-Hypaque and cultured for 20 hours without (b) or with BAG3 antisense (b+α) or control nonsense (b+ν) phosphorothioate oligodeoxynucleotides (5 microM) described in the text. Then cells were permeabilised and analysed by indirect immunofluorescence with the polyclonal antibody AC-BAG3-1. a=control rabbit Ig.

BAG3 protein = biological target: T1, BAG3 protein (Homo sapiens, UniProt O95817); experiment: BAG3 protein in ALL cells, Western blot and intracellular immunofluorescence; format: cell-based; details: oligo 5 microM, 24 hr
T1 construct: endogenous in cells; host or cells: primary leukemic cells from patients' peripheral blood (B-CLL, acute leukemia)
T1 sequence (O95817 whole entry): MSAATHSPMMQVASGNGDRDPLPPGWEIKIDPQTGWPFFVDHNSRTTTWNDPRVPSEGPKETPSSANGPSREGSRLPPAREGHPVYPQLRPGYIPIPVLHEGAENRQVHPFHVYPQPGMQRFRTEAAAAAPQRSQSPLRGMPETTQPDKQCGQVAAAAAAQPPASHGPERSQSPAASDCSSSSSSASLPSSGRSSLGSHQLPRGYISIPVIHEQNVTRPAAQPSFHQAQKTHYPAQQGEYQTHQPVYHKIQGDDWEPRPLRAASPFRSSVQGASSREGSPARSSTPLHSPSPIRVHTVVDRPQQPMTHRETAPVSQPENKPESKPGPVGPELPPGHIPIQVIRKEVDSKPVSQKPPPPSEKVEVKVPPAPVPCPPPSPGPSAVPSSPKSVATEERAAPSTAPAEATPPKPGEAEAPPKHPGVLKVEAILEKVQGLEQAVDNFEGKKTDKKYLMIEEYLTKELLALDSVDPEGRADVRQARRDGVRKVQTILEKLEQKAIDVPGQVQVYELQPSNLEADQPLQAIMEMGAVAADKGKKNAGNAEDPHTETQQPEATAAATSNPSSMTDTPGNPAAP
Protocol: FIG. 11 Expression of BAG3 protein in ALL cells and its downmodulation by BAG3-specific antisense oligonucleotides. A—ALL cells (1×10^6/ml) were cultured in 10% FCS-RPMI without or with control nonsense ([…], SEQ ID NO 12, nonsense 1) or BAG3-specific antisense ([…], SEQ ID NO 9, antisense 1) oligonucleotides (5 microM) for 24 hr. Then cell lysates were obtained and analyzed in Western blot with anti-BAG3 (AC-BAG3-1; analogous results were obtained With AC-BAG3-2) or anti-tubulin antibodies. B—ALL cells (1×10^6/ml) were cultured in 10% FCS-RPMI without or with BAG3-specific antisense ([…], SEQ ID NO 9, antisense 1) (a) or control nonsense ([…], SEQ ID NO 12, nonsense 1) (b) oligonucleotides (5 microM) for 24 hr. Then the cells were analyzed by intracellular immunofluorescence with the anti-BAG3 polyclonal antibody. Negative controls with a control rabbit antibody preparation are shown on the left in a and b.

Compound: COc1cc([C@@H]2c3cc4c(cc3[C@@H](O[C@@H]3O[C@@H]5CO[C@@H](C)O[C@H]5[C@H](O)[C@H]3O)[C@H]3COC(=O)[C@H]23)OCO4)cc(OC)c1O [Etoposide, etoposide]
- % of apoptosis, incubation Etoposide (5 microM) [1]: 38.32%

Compound: CC[C@@]1(O)C(=O)OCc2c1cc1n(c2=O)Cc2cc3c(CN(C)C)c(O)ccc3nc2-1 [Topotecan, topotecan]
- % of apoptosis, incubation Topotecan (40 ng/ml) [1]: 36.84%

Compound: Nc1nc(F)nc2c1ncn2[C@@H]1O[C@H](COP(=O)(O)O)[C@@H](O)[C@@H]1O [fludarabine, fludarabine phosphate]
- BAG3 mRNA levels (BAG3; 24 hours, PCR): enhanced
- BAG3 protein levels (BAG3; immunofluorescence, 11 of 13 BAG3-positive specimens (18 examined)): upregulated

Compound: antisense 1: BAG3 antisense phosphorothioate oligodeoxynucleotide TGCATCATGGGCGAGTGGGTGGCGG (antisense TGCATCATGGGCGAGTGGGTGGCGG; DNA, all phosphorothioate, methylation of C not given here; listed as Homo sapiens)
- BAG3 protein in ALL cells (BAG3 protein): downmodulation

Compound: control nonsense: control nonsense phosphorothioate oligodeoxynucleotides described in the text; which of nonsense 1-3 is not stated (DNA TTATATTCTATTATATTTATGAACTCC; DNA, all phosphorothioate, methylation of C not given here; listed as Homo sapiens)
- % of apoptosis, incubation Etoposide (5 microM) [1]: 45.40%
- % of apoptosis, incubation Topotecan (40 ng/ml) [1]: 41.60%
- % of apoptosis, incubation control medium ([1]; oligo 5 microM, no chemotherapeutic compound): 25.84%
